Data reported in patent US6399570B1, “Antimicrobial/endotoxin neutralizing polypeptide” (priority 1999, dated 2002).

Key:
[1] = test system: E. coli 0111; test: Galactosamine-sensitized, leukopenic mouse model of bacteremic lethality; assay type: in vivo, CF-1 mice; conditions: 100 μM, i.p., simultaneous with lethal E. coli dose; 10% in untreated animals
Description: The ultimate protective potential of the LF 6 kDa polypeptide in a host-defense against bacterial infection was determined by testing in an acute, galactosamine-sensitized, leukopenic mouse model system (Bucklin et al., J. Infect. Dis. 174: 1249-1254 (1996)). In this model, mice were made leukopenic to suppress their endogenous host defense systems and then sensitized to the effects of Gram-negative endotoxins by galactosamine treatment while injecting a lethal intraperitoneal dose of E. coli. […] This rescue from lethality dramatically illustrates the protective potential of the polypeptide in vivo and is likely due to its combined antimicrobial and anti-endotoxin properties.
Generation of galactosamine-sensitized, leukopenic mouse model system. CF-1 mice were rendered immunocompromised by cyclophosphamide treatment three days prior to galactosamine-sensitizing them to the lethal effects of injection with an LD90 dose of E. coli 0111 (Bucklin et al., J. Infect. Dis. 174: 1249-1254 (1996)). Under these conditions, circulating leukocytes were reduced by 85% and the LD90 was determined to be 5×10^3 CFU E. coli.

[2] = test system: RAW 264.7 cells; test: Endotoxin induced TNF-α secretion by RAW 264.7 cells; assay type: cell-based, murine
Description: Suppression of endotoxin-induced TNF-α secretion by a macrophage cell line RAW 264.7 was also measured (Kelly et al., Infect. Immun. 59: 4491-6 (1991)). RAW 264.7 cells secret TNF-α upon exposure to endotoxin (M. R. Ruff and G. E. Gifford, Lymphokines 2: 235-272 (1981)). […] Similar to the results of the LAL assay, the potency of LF-33 varied depending on the type of endotoxin. The LF-33 concentration needed to suppress 50% TNF-α secretion induced by endotoxin (10 ng/ml) was approximately 0.01 μM for E. coli LPS and lipid A, 0.1 μM for LPS from P. aeruginosa, and 0.5 μM for LPS from S. abortus equi and N. meningitidis.
Endotoxin induced TNF-α secretion by RAW 264.7 cells. The murine macrophage cell line RAW 264.7 was obtained from the American Type Culture Collection (ATCC, Rockville, Md.) and maintained as described previously (Jeremy, B., Immunol. Today. 16: 417-419 (1995)). The concentration of endotoxin in all buffers and media was controlled to below 0.1 EU/ml. The following protocol was essentially described before and used here with minor modifications (Kelly et al., Infect. Immun. 59: 4491-6 (1991)). Each well of a 96-well tissue culture plate was seeded with 150 μl RAW 264.7 cells at 10^6 cells per ml DMEM (Life Technologies, Gaithersburg, Md.) supplemented with 10% heat-treated fetal bovine serum (Life Technologies), 25 mM HEPES (N-2-hydroxyethylpiperazine-N′-2-ethanesulfonic acid; pH 7.3), penicillin (60 U/ml) and streptomycin (60 μg/ml). After overnight incubation at 37° C. in a 6% CO2 incubator, the medium was aspirated and cells washed with 3-changes of endotoxin-free Hank's balanced salt solution (HBSS, Life Technologies) supplemented with 25 mM HEPES (pH 7.3). Control endotoxin (10 ng/ml) and test materials were prepared in HBSS-HEPES. After incubation in a 37° C. water bath for 1 h, 0.2 ml of these solutions was added in triplicate to each well and incubated at 37° C. for 6 h. The supernatants were then collected and stored at −70° C. before the measurement of […] activity. Controls included HBSS-HEPES and test materials in the absence of endotoxin. TNF-α activity of the medium and test materials was below […]. The human serum used in some experiments was a pool from normal donors.
Determination of TNF activity. TNF-α activity in the culture supernatant was determined based on its cytotoxicity for the mouse fibrosarcoma cell line WEHI 164 cells (ATCC). […] The antibody at 1:100 dilution completely eliminated the cytotoxicity in the culture supernatant of the RAW 264.7 cell stimulated by endotoxin and in the mouse sera collected 1 h after intraperitoneal injection of endotoxin.
Briefly, the 96-well tissue culture plates were seeded with 100 μl WEHI164 cells (5×10^4 cells) in RPMI-1640 medium (Life Technologies) containing 10% heat-treated fetal bovine serum, 25 mM HEPES (pH 7.3), penicillin (60 U/ml), streptomycin (60 μg/ml), and actinomycin D (4 μg/ml). After a 2-h incubation at 37° C. in a 6% CO2 incubator, 10 μl twofold serially diluted samples (culture supernatants) or standards (murine recombinant TNF-α, Genzyme) was added to each well, and incubated for 20 h. Cell viability was then determined by the addition of 10 μl MTT (Thiazolyl blue, Sigma) stock solution (5 mg/ml in saline) to each well, and the incubation was allowed to continue for 6 h. 180 μl of acid-isopropanol (containing 40 mM HCl) was added to dissolve the generated dark blue crystals. The plate was read at 570 nm with a reference of 630 nm in a microplate reader. The amount of TNF-α that led to 50% killing of the seeded cells was defined as one unit, equivalent to approximately 15 pg of recombinant TNF-α under the present condition. A standard curve was obtained by incubating known amounts of the recombinant TNF-α with the WEHI cells.

Compound	survival rate of infected animals [1] [%]	TNF-α secretion induced by Lipid A ([2]; agent 3 μM, endotoxin 10 ng/ml, control 2,386)	TNF-α secretion induced by S. abortus LPS ([2]; agent 3 μM, endotoxin 10 ng/ml, control 3,969)	TNF-α secretion induced by P. aer. LPS ([2]; agent 3 μM, endotoxin 10 ng/ml, control 4,813)	TNF-α secretion induced by E. coli LPS ([2]; agent 3 μM, endotoxin 10 ng/ml, control 4,928)	TNF-α secretion induced by N. min. LPS ([2]; agent 3 μM, endotoxin 10 ng/ml, control 5,658)	effect on endotoxin-induced TNF-α secretion ([2]; equal molar concentration of LF-27 or 10% human serum)
6 kDa polypeptide: 6 kDa fragment produced by cathepsin D digestion of human LF, amino acids 1-49 of SEQ ID NO: 2 (GRRRRSVQWCAVSQPEATKCFQWQRNMRKVRGPPVSCIKRDSPIQCIQA; listed as Homo sapiens)	70						
CSCC[C@H](NC(=O)[C@H](CC(N)=O)NC(=O)[C@H](CCCNC(=N)N)NC(=O)[C@H](CCC(N)=O)NC(=O)[C@H](Cc1c[nH]c2ccccc12)NC(=O)[C@H](CCC(N)=O)NC(=O)[C@H](Cc1ccccc1)NC(=O)[C@H](CS)NC(=O)[C@H](CCCCN)NC(=O)[C@@H](NC(=O)[C@H](C)NC(=O)[C@H](CCC(=O)O)NC(=O)[C@@H]1CCCN1C(=O)[C@H](CCC(N)=O)NC(=O)[C@H](CO)NC(=O)[C@@H](NC(=O)[C@H](C)NC(=O)[C@H](CS)NC(=O)[C@H](Cc1c[nH]c2ccccc12)NC(=O)[C@H](CCC(N)=O)NC(=O)[C@@H](N)C(C)C)C(C)C)[C@@H](C)O)C(=O)N[C@@H](CCCNC(=N)N)C(=O)N[C@@H](CCCCN)C(=O)N[C@H](C(=O)N[C@@H](CCCNC(=N)N)C(=O)NCC(=O)N1CCC[C@H]1C(=O)O)C(C)C [LF-27]		3,182 +/− 412 pg/ml	3,985 +/− 497 pg/ml	4,633 +/− 603 pg/ml	4,912 +/− 588 pg/ml	7,306 +/− 1008 pg/ml	no effect
